Assay results published in the NIST ThermoML archive (doi:10.1021/je060271a).
Numbers after ± are expanded uncertainties.

Details: 323.15 K, Liquid, Vibrating tube method

## CCCC(=O)OCC(COC(=O)CCC)(COC(=O)CCC)COC(=O)CCC [pentaerythritol tetrabutyrate]
15786 kPa
  mass density: 1036 ± 1.2 kg/m3
15818 kPa
  mass density: 1036 ± 1.2 kg/m3
15856 kPa
  mass density: 1036.1 ± 1.2 kg/m3
15888 kPa
  mass density: 1036 ± 1.2 kg/m3
15920 kPa
  mass density: 1036 ± 1.2 kg/m3
15952 kPa
  mass density: 1036.1 ± 1.2 kg/m3
15991 kPa
  mass density: 1036.1 ± 1.2 kg/m3
16024 kPa
  mass density: 1036.1 ± 1.2 kg/m3
16057 kPa
  mass density: 1036.1 ± 1.2 kg/m3
16097 kPa
  mass density: 1036.2 ± 1.2 kg/m3
16131 kPa
  mass density: 1036.3 ± 1.2 kg/m3
16164 kPa
  mass density: 1036.2 ± 1.2 kg/m3
16204 kPa
  mass density: 1036.3 ± 1.2 kg/m3
16238 kPa
  mass density: 1036.4 ± 1.2 kg/m3
16305 kPa
  mass density: 1036.3 ± 1.2 kg/m3
16381 kPa
  mass density: 1036.4 ± 1.2 kg/m3
16759 kPa
  mass density: 1036.6 ± 1.2 kg/m3
16795 kPa
  mass density: 1036.7 ± 1.2 kg/m3
16831 kPa
  mass density: 1036.7 ± 1.2 kg/m3
16875 kPa
  mass density: 1036.7 ± 1.2 kg/m3
18410 kPa
  mass density: 1037.7 ± 1.2 kg/m3
18440 kPa
  mass density: 1037.7 ± 1.2 kg/m3
18726 kPa
  mass density: 1037.9 ± 1.2 kg/m3
18756 kPa
  mass density: 1038 ± 1.2 kg/m3
19188 kPa
  mass density: 1038.2 ± 1.3 kg/m3
19252 kPa
  mass density: 1038.3 ± 1.3 kg/m3
19278 kPa
  mass density: 1038.4 ± 1.3 kg/m3
19311 kPa
  mass density: 1038.3 ± 1.3 kg/m3
19396 kPa
  mass density: 1038.4 ± 1.3 kg/m3
19436 kPa
  mass density: 1038.4 ± 1.3 kg/m3
19469 kPa
  mass density: 1038.4 ± 1.3 kg/m3
19501 kPa
  mass density: 1038.4 ± 1.3 kg/m3
19541 kPa
  mass density: 1038.4 ± 1.3 kg/m3
19574 kPa
  mass density: 1038.4 ± 1.3 kg/m3
19608 kPa
  mass density: 1038.4 ± 1.3 kg/m3
19648 kPa
  mass density: 1038.6 ± 1.3 kg/m3
19682 kPa
  mass density: 1038.6 ± 1.3 kg/m3
19970 kPa
  mass density: 1038.7 ± 1.3 kg/m3
20047 kPa
  mass density: 1038.7 ± 1.3 kg/m3
20089 kPa
  mass density: 1038.7 ± 1.3 kg/m3
20124 kPa
  mass density: 1038.7 ± 1.3 kg/m3
20159 kPa
  mass density: 1038.9 ± 1.3 kg/m3
20202 kPa
  mass density: 1038.8 ± 1.3 kg/m3
20238 kPa
  mass density: 1039 ± 1.3 kg/m3
20546 kPa
  mass density: 1039.1 ± 1.3 kg/m3
20584 kPa
  mass density: 1039 ± 1.3 kg/m3
21551 kPa
  mass density: 1039.8 ± 1.3 kg/m3
21639 kPa
  mass density: 1039.7 ± 1.3 kg/m3
21673 kPa
  mass density: 1039.9 ± 1.3 kg/m3
21714 kPa
  mass density: 1039.9 ± 1.3 kg/m3
21749 kPa
  mass density: 1039.8 ± 1.3 kg/m3
21784 kPa
  mass density: 1039.8 ± 1.3 kg/m3
21826 kPa
  mass density: 1039.9 ± 1.3 kg/m3
21862 kPa
  mass density: 1040 ± 1.3 kg/m3
21898 kPa
  mass density: 1040 ± 1.3 kg/m3
21934 kPa
  mass density: 1040 ± 1.3 kg/m3
21976 kPa
  mass density: 1040 ± 1.3 kg/m3
22011 kPa
  mass density: 1040 ± 1.3 kg/m3
22048 kPa
  mass density: 1040 ± 1.3 kg/m3
22091 kPa
  mass density: 1040.1 ± 1.3 kg/m3
22126 kPa
  mass density: 1040 ± 1.3 kg/m3
22162 kPa
  mass density: 1040.2 ± 1.3 kg/m3
22206 kPa
  mass density: 1040.1 ± 1.3 kg/m3
22243 kPa
  mass density: 1040.2 ± 1.3 kg/m3
22279 kPa
  mass density: 1040.1 ± 1.3 kg/m3
22323 kPa
  mass density: 1040.3 ± 1.3 kg/m3
22360 kPa
  mass density: 1040.1 ± 1.3 kg/m3
22398 kPa
  mass density: 1040.2 ± 1.3 kg/m3
22443 kPa
  mass density: 1040.4 ± 1.3 kg/m3
22480 kPa
  mass density: 1040.3 ± 1.3 kg/m3
22518 kPa
  mass density: 1040.3 ± 1.3 kg/m3
22563 kPa
  mass density: 1040.3 ± 1.3 kg/m3
22602 kPa
  mass density: 1040.4 ± 1.3 kg/m3
23845 kPa
  mass density: 1041.3 ± 1.3 kg/m3
23898 kPa
  mass density: 1041.2 ± 1.3 kg/m3
23944 kPa
  mass density: 1041.2 ± 1.3 kg/m3
23987 kPa
  mass density: 1041.3 ± 1.3 kg/m3
24030 kPa
  mass density: 1041.3 ± 1.3 kg/m3
24100 kPa
  mass density: 1041.4 ± 1.3 kg/m3
24135 kPa
  mass density: 1041.4 ± 1.3 kg/m3
24290 kPa
  mass density: 1041.4 ± 1.3 kg/m3
24326 kPa
  mass density: 1041.4 ± 1.3 kg/m3
24362 kPa
  mass density: 1041.4 ± 1.3 kg/m3
24397 kPa
  mass density: 1041.5 ± 1.3 kg/m3
24789 kPa
  mass density: 1041.8 ± 1.3 kg/m3
24827 kPa
  mass density: 1041.8 ± 1.3 kg/m3
24872 kPa
  mass density: 1041.9 ± 1.3 kg/m3
24910 kPa
  mass density: 1041.8 ± 1.3 kg/m3
25317 kPa
  mass density: 1042.1 ± 1.3 kg/m3
25357 kPa
  mass density: 1042.1 ± 1.3 kg/m3
25403 kPa
  mass density: 1042.2 ± 1.3 kg/m3
25442 kPa
  mass density: 1042.2 ± 1.3 kg/m3
25481 kPa
  mass density: 1042.2 ± 1.3 kg/m3
25528 kPa
  mass density: 1042.2 ± 1.3 kg/m3
25569 kPa
  mass density: 1042.3 ± 1.3 kg/m3
25608 kPa
  mass density: 1042.2 ± 1.3 kg/m3
25656 kPa
  mass density: 1042.3 ± 1.3 kg/m3
25696 kPa
  mass density: 1042.3 ± 1.3 kg/m3
25736 kPa
  mass density: 1042.3 ± 1.3 kg/m3
25784 kPa
  mass density: 1042.5 ± 1.3 kg/m3
26584 kPa
  mass density: 1042.8 ± 1.3 kg/m3
27050 kPa
  mass density: 1043.1 ± 1.3 kg/m3
27094 kPa
  mass density: 1043.1 ± 1.3 kg/m3
27148 kPa
  mass density: 1043.2 ± 1.3 kg/m3
27193 kPa
  mass density: 1043.3 ± 1.3 kg/m3
27239 kPa
  mass density: 1043.4 ± 1.3 kg/m3
27294 kPa
  mass density: 1043.3 ± 1.3 kg/m3
27340 kPa
  mass density: 1043.4 ± 1.3 kg/m3
27386 kPa
  mass density: 1043.3 ± 1.3 kg/m3
27432 kPa
  mass density: 1043.4 ± 1.3 kg/m3
27488 kPa
  mass density: 1043.4 ± 1.3 kg/m3
27535 kPa
  mass density: 1043.5 ± 1.3 kg/m3
27876 kPa
  mass density: 1043.7 ± 1.3 kg/m3
27985 kPa
  mass density: 1043.8 ± 1.3 kg/m3
28093 kPa
  mass density: 1043.7 ± 1.3 kg/m3
28151 kPa
  mass density: 1044 ± 1.3 kg/m3
28200 kPa
  mass density: 1043.9 ± 1.3 kg/m3
28250 kPa
  mass density: 1043.9 ± 1.3 kg/m3
28409 kPa
  mass density: 1044 ± 1.3 kg/m3
28460 kPa
  mass density: 1044.1 ± 1.3 kg/m3
28519 kPa
  mass density: 1044 ± 1.3 kg/m3
28562 kPa
  mass density: 1044.2 ± 1.3 kg/m3
28628 kPa
  mass density: 1044.1 ± 1.3 kg/m3
28679 kPa
  mass density: 1044.2 ± 1.3 kg/m3
28730 kPa
  mass density: 1044.2 ± 1.3 kg/m3
29066 kPa
  mass density: 1044.5 ± 1.3 kg/m3
29135 kPa
  mass density: 1044.4 ± 1.3 kg/m3
29177 kPa
  mass density: 1044.5 ± 1.3 kg/m3
29260 kPa
  mass density: 1044.5 ± 1.3 kg/m3
29301 kPa
  mass density: 1044.6 ± 1.3 kg/m3
29338 kPa
  mass density: 1044.7 ± 1.3 kg/m3
29373 kPa
  mass density: 1044.7 ± 1.3 kg/m3
29415 kPa
  mass density: 1044.7 ± 1.3 kg/m3
29449 kPa
  mass density: 1044.6 ± 1.3 kg/m3
29492 kPa
  mass density: 1044.7 ± 1.3 kg/m3
29529 kPa
  mass density: 1044.8 ± 1.3 kg/m3
29563 kPa
  mass density: 1044.8 ± 1.3 kg/m3
29598 kPa
  mass density: 1044.6 ± 1.3 kg/m3
29642 kPa
  mass density: 1044.9 ± 1.3 kg/m3
29678 kPa
  mass density: 1044.8 ± 1.3 kg/m3
29720 kPa
  mass density: 1044.9 ± 1.3 kg/m3
29756 kPa
  mass density: 1044.8 ± 1.3 kg/m3
29793 kPa
  mass density: 1044.8 ± 1.3 kg/m3
29839 kPa
  mass density: 1044.9 ± 1.3 kg/m3
30028 kPa
  mass density: 1045.1 ± 1.3 kg/m3
30074 kPa
  mass density: 1045.1 ± 1.3 kg/m3
